Where two headings read alike, the source gives them in different places. One block for each compound: values may come before it.
Columns and labels:
[1] = Experimental: Female, athymic nude mice (aged 6-8 weeks) were randomized to one of 12 study arms (n=3 per arm) (Table 16) and weighed prior to dosing. Mice were dosed via oral gavage either once daily (QD), or bi-daily (BID) for five days. […] The vehicle for PF-06952229 (PF) was 10% DMSO, 40% PEG300, 5% tween-80, 45% saline. For the vehicle alone group in this study, the PF-06952229 vehicle was used. At the end of each day for 10 days, mice were weighed, and symptoms of toxicity (if present) were recorded. A qualitative determination of overall toxicity was made based on the number and severity of symptoms for each cohort. The safety margin was determined at the end of day 10 based on the following equation: (maximum tolerated dose)/(minimum effective dose).
[2] = BID; in animal studies; cited from earlier work
[3] = system: TGF-beta induced SMAD signaling; test: RDSR (RD SMAD reporter) Cellular Reporter Assay; assay type: cell-based; settings: Homo sapiens; 200 pg/ml rhTGF-beta1, 24 h; control compounds; read-out: RDSR reporter activity
In short: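 Human rhabdomyosarcoma RD cells stably carrying an SBE-driven luc2P luciferase reporter. Inhibition of SMAD signaling was quantified from ONE-Glo luminescence.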

[4] = system: TGF-β1 mediated alpha-SMA expression in primary human bronchial fibroblasts derived from IPF patients; test: Fibroblast to Myofibroblast Transformation (FMT) assay
Experimental: To test the ability of compounds of the invention to inhibit the TGF-β1 dependent transition of fibroblasts to myofibroblasts in a relevant disease model of IPF, a study was carried out using an FMT assay employing lung fibroblasts from IPF patients. In this model the transition of fibroblasts to myofibroblasts is determined by the expression of the biomarker alpha smooth muscle actin (SMA).
Each drug concentration condition was evaluated in biological duplicates. One hour after compound addition, cells were stimulated with 1.25 ng/ml of TGF-01 and cultured for 72 hours thereafter. At the end of 72 hours cells were fixed using formaldehyde. The results were generated using high content imaging after staining cells using the nuclear stain DAPI as well as evaluation of the expression of alpha SMA. […] As a negative control 0.1% DMSO was used matching the DMSO concentration in treated wells.

[5] = system: bleomycin-induced lung fibrosis; test: Bleomycin-induced lung fibrosis study; assay type: in vivo, mouse
Description: Fibrosis, the formation of excess connective tissue causing stromal hardening and scar formation is a hallmark of cancer. Up to 20% of cancers are linked to chronic, inflammation-related fibrosis, including hepatocellular, gastric, esophageal, head and neck, colon, pancreatic, cervix, and vulvar cancers. The contribution of fibrosis for early cancer development remains unclear; however, in some advanced solid tumors it is believed that fibrotic tissues act like a barrier, preventing therapeutic agents like chemotherapy or biologics from penetrating the tumor tissue. Additionally, strong fibrotic tissue is thought to contribute to excluding immune cells from entering the tumor core, creating immune excluded or immune desert phenotypes. To evaluate the anti-fibrotic properties of Ex-11, a prophylactic model of bleomycin-induced lung fibrosis in male C57BL/6 mice was utilized, and various endpoints evaluated.
All mice in this study were 8-week-old male C57BL/6 mice purchased from Taconic. On Day −2 prior to bleomycin administration, all animals were weighed and distributed into groups with 10 mice each (Table 18) such that each group of animals contained animals of similar body weights.
On day 0, animals were treated with 1.5 U/kg bleomycin (Blenoxane catalog number NDC 61703-323-22, Hospira Pharmaceutical) intratracheally, except Group 1, which was administered normal saline via oropharyngeal route to serve as the healthy naïve control group. Prophylactic treatment was administered from one day prior to bleomycin administration to day 21 post bleomycin administration. On Day 21, only the morning dose was administered. Animals were harvested on day 21 and lung weights were measured. Body weights of all mice was recorded at least three times a week beginning on Day −2 and ending on the day of harvest, Day 21. Pirfenidone was used as positive control compound, as it is an FDA-approved drug for the treatment of idiopathic pulmonary fibrosis (IPF) in humans. All compounds were prepared in 10% Tween-20 in water; a homogenous suspension was formulated using a magnetic stir bar.
At the end of the study, total lung tissues were weighed and fixed for histological examination, which was conducted by a trained pathologist blinded to the treatment groups. Specifically, whole lungs from each mouse were paraffin-embedded in a single block. Two slides from each block were sectioned to the depth of the mainstem bronchi (near the center of each lobe) and stained with either hematoxylin and eosin (H&E) or Masson's trichrome (MT). Glass slides were evaluated using light microscopy by a board-certified veterinary pathologist. Lung sections were scored according to the methods described below, evaluating five randomly chosen fields in each tissue. Fixed lungs were sectioned, and consecutive tissue sections were stained with H&E or MT. Various pathological scoring parameters were used to determine the average Ashcroft score, as well as average inflammation and collagen deposition indicating fibrosis.
Parameter of scoring formalin fixed lung sections:
Modified Ashcroft Score: H&E-stained lung sections were scored according to the modified Ashcroft scale. Scores for five representative 200× microscopic fields per sample were averaged to obtain a mean score for each animal. […]

KGN cells = test: TGFβ induced proliferation, KGN; assay type: cell-based, human; settings: TGFβ 1 ng/mL, 6 days, KGN (FoxL2 mutant)
Experimental: (§1) KGN and COV434 cells were seeded in triplicate in 96 well culture plates and incubated in the presence or absence of TGFβ (1 ng/mL) for 6 or 7 days, respectively. Proliferation was measured by Cell Titer Glo.

COV434 cells = test: TGFβ induced proliferation, COV434; assay type: cell-based, human; settings: TGFβ 1 ng/mL, 7 days, COV434 (FoxL2 wild-type)
Experimental: as §1

Compound: CC(C)c1cnc(-c2cc(Cl)ccc2F)cc1Nc1ccncc1C(=O)NC(CO)CO [PF-06952229]
- tolerated dose ([1]; BID): 50 mg/kg
- dose at which mice experienced DLT ([1]; mouse, in vivo): ≥ 150 mg/kg
- safety margin (maximum tolerated dose)/(minimum effective dose) ([1]; mouse, in vivo): ~1.7 fold
- minimum effective dose [2]: 30 mg/kg

Compound: Cc1cccc(-c2[nH]c(CNc3ccccc3F)nc2-c2ccc3ncnn3c2)n1 [Vactosertib, reference compound]
- IC50 [3]: ~7.9 nM
- safety margin (maximum tolerated dose)/(minimum effective dose) ([1]; female, mouse, in vivo, 10 days): 3.75-6 fold
- LogM IC50 αSMA ([4]; donor IPF05): −7.4 LogM
- Max PIN (%) ([4]; donor IPF05): 32.7%
- LogM IC50 αSMA ([4]; donor IPF06): −7.0 LogM
- Max PIN (%) ([4]; donor IPF06): 112.1%
- LogM IC50 αSMA ([4]; donor IPF08): −7.1 LogM
- Max PIN (%) ([4]; donor IPF08): 104.0%

- largest percent change in weight ([5]; group 4, day 9, average): −1.2%
Compound: Cc1ccc(=O)n(-c2ccccc2)c1 [pirfenidone, reference compound]
- animals lost during the study ([5]; 100 mg/kg PO BID): Only one animal in the pirfenidone group was lost
- total lung weight ([5]; day 21, vs bleomycin/vehicle): significant decrease in lung weight

Compound: TGFβ: TGFβ cytokine used at 1 ng/mL to stimulate KGN and COV434 cells
- proliferation (Cell Titer Glo) (KGN cells): significantly increased
- proliferation (Cell Titer Glo) (COV434 cells): no change

Source: patent US11746103B2, “ALK-5 inhibitors and uses thereof” (Sumitomo Pharma Oncology, Inc., priority 2020, dated 2023)
